Values belong to the compound of their own block, whether it stands above or below them.
Legend:
[1] = system: 28S rRNA and 18S rRNA (total RNA from HCT116 cells); test: Human rRNA interaction screening assay (agarose gel electrophoresis mobility shift); format: binding; conditions: 1 ug total RNA; 10 uM compound or 0.5 ug/mL PI, 15 min, room temperature
Protocol: RNA was isolated from HCT116 cells (RNeasy kit, QIAGEN) and contacted in vitro with each compound from a library of compounds. In representative assays, 1 ug of total RNA from HCT116 cells was incubated with 0.5 ug/mL of propidium iodide (PI), 10 uM compound A-1 or another compound in the library in a volume of 10 uL for 15 min at room temperature, followed by agarose gel electrophoresis. Fluorescence of the compounds was visualized on each gel. […] Compounds C-1, C-2, C-3, C-4 and C-5 have the following general formula: [drawing 15] [drawing 16]

rRNA synthesis, HCT-116 = test: PCR assay of rRNA synthesis from 45S rDNA (5' ETS probe); format: cell-based; conditions: Homo sapiens; rRNA synthesis, HCT-116; read-out: QPCRrDNA IC50_HCT-116
Protocol: Assays were conducted to determine the effects of compounds on rRNA synthesis from 45S rDNA. In particular, compound A-1 at various concentrations was incubated with cells and tested for an effect on rRNA synthesis after a two hour or four hour incubation with the compound. Synthesized rRNA was quantified by a polymerase chain reaction (PCR) assay. A primer/probe set was designed using Primer Express software and synthesized by Applied Biosystems. The 5′ ETS Probe utilized had the following sequence (@ its 3′ end): 6FAM-TTG ATC CTG CCA GTA GC-MGBNFQ (SEQ ID NO:227). The primer sequences were as follows:
(§1) Mix • 1 ug RNA • 2.5 ul 10× Taq Man buffer • 5.5 ul 25 mM MgCl2 • 5 ul of a mix of dNTP (500 uM each) • 1.2 ul random hexamer primer (2.5 uM stock) • 0.5 ul RNase inhibitor (0.4 units/ul) • 0.6 ul Reverse Transcriptase (1.2 units/ul) • bring to 25 ul total volume with water
(§2) Mix • 5 ul Reverse Transcriptase reaction product • 12.5 ul 2×PCR mix • 1 uM forward primer • 1 uM reverse primer • 0.5 uM Taq Man probe • 500 nM Rox • Adjust to 25 ul final volume with water
(§3) PCR cycles • 95 degrees C. 1 minute • 40 cycles of • 95 degrees C. 15 seconds • 60 degrees C. 1 minute.
(§4) Fluorescence of digested label was detected and quantified. […] The effect of other compounds on rRNA synthesis also were assessed in the assay, and provided in the table hereafter are IC50 values of selected compounds pertaining to rRNA synthesis and cMYC RNA synthesis.

[2] = system: cMYC RNA synthesis, HCT-116; test: PCR control assay of C-myc transcription; format: cell-based; conditions: for IC50: Homo sapiens, read-out: QPCRMYC IC50_HCT-116
Protocol: A control assay that detected effects of the compounds on C-myc transcription also was conducted using a primer/probe set purchased from ABI (TaqMan Gene Expression Assay with assay ID: Hs99999003_m1). The following assay protocol was utilized:
as §1, §2, §3, §4

nucleolin [3] = molecular target: T1, nucleolin (Homo sapiens, UniProt P19338); test: Filter-binding assay of 32P-labeled quadruplexes and Nucleolin; conditions: for Kd: 0.2 nM 32P-labeled quadruplex, read-out: Kd, apparent dissociation constant of nucleolin protein and the nucleic acid ligand
T1 construct: without the N-terminal acidic stretches domain
T1 sequence (P19338 284-710 limits assumed): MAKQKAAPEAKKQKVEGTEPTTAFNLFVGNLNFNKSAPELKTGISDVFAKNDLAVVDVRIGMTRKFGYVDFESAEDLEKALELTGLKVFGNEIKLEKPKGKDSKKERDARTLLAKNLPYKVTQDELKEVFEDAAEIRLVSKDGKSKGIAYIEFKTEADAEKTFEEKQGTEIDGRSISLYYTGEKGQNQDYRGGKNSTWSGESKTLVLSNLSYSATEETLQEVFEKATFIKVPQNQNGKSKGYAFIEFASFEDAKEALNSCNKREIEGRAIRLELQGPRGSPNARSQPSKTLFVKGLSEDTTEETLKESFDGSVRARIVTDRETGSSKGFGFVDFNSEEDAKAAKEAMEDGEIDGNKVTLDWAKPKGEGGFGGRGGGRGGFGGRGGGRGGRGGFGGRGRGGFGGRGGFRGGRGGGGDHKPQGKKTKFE
Protocol: The assay also was conducted in a filter-binding format. […] The protein-quadruplex mixtures were incubated for 30 min at ambient temperature and filtered through mixed cellulose ester membrane filters (Millipore) with gentle suction. The filters were washed twice with […] of binding buffer, dried and OptiPhase ‘SuperMix’ scintillation cocktail (Perkin Elmer) was added to the wells. Radioactivity was assayed with MicroBeta scintillation counter (Perkin Elmer). Binding curves were constructed and apparent Kd's and Bmax's for the complexes were calculated using the GraphPad Prizm software program (GraphPad Software). In the following table, the nucleic acid ligand is designated in the first column using the nomenclature described herein; the second column provides the nucleotide sequence of the nucleic acid ligand; the third column is the conformation of the ligand as determined by circular dichroism (M is mixed, P is parallel, A is antiparallel, C is complex, SS is single-stranded and ND is not determined); the fourth column is the dissociation constant determined by the filter binding assay of nucleolin protein and the nucleic acid ligand; the fifth column is a Bmax constant determined by the filter binding assay, which is the percent of active nucleic acid ligand in each assay; and the sixth column presents the concentration of Compound A-1 required to dissociate half of the complexed nucleic acid ligand and nucleolin protein, as determined by the EMSA assay described above.

nucleolin [4] = molecular target: T1, nucleolin; test: EMSA, relative affinity of nucleic acid ligands for nucleolin; format: binding; set-up: key: +: weakest nucleolin affinity; ++++: strongest nucleolin affinity
Protocol: (§5) The following assays assessed effects of compounds on interactions between nucleolin and nucleic acid ligands capable of forming quadruplex (QP) and hairpin (HP) secondary structures. Nucleic acid ligands tested were a cMyc QP DNA having nucleotide sequence 5′-[…]-3′ (SEQ ID NO: 176) and a HP pre-rRNA region to which nucleolin binds, having the sequence 5′-[…]-3′ (SEQ ID NO: 177). In the assays, recombinant nucleolin (˜250 nM), which was fused to maltose binding protein and had the sequence under accession number NM_005381 without the N-terminal acidic stretches domain, was incubated with each of the two ^32P-labeled nucleic acid ligands (10 or 250 nM). Nucleolin and the nucleic acid ligand were incubated in the presence or absence of a test compound of Formula A-1, B-1, C-6 or C-7 in an incubation buffer (12.5 mM Tris, pH 7.6, 60 mM KCl, 1 mM MgCl2, 0.1 mM EDTA, 1 mM DTT, 5% glycerol, 0.1 mg/ml BSA) for 30 minutes at room temperature. Structures for A-1 and B-1 are shown above and structures for C-6 and C-7 are shown hereafter: [drawing 17] The resulting complexes were separated on a 6% DNA retardation gel using 0.5× TBE with 20 mM KCl as a running buffer (i.e., electrophoresis mobility shift assay (EMSA)).
The assay also was conducted using nucleic acid ligands derived from human ribosomal DNA. Sequences of these nucleic acids are shown in the preceding example. […] A “+” represents the weakest nucleolin affinity and least interference by compound A-1 and a “++++” represents the strongest nucleolin affinity and greatest interference by compound A-1.

nucleolin/cMyc QP DNA = molecular target: T2, nucleolin/cMyc QP DNA (Homo sapiens, UniProt P19338); test: EMSA, nucleolin/QP ligand interaction; format: binding; conditions: nucleolin ~250 nM, 32P-labeled ligand 10 or 250 nM, 30 minutes (FIG. 1, FIG. 2)
T2 construct: without the N-terminal acidic stretches domain
T2 sequence (P19338 284-710 limits assumed): as above
Protocol: as §5

[5] = molecular target: T3, nucleolin/HP pre-rRNA region (Homo sapiens, UniProt P19338); test: EMSA, nucleolin/HP ligand interaction; format: binding; conditions: nucleolin ~250 nM, 32P-labeled ligand 10 or 250 nM, 30 minutes (FIG. 1, FIG. 2)
T3 construct: without the N-terminal acidic stretches domain
T3 sequence (P19338 284-710 limits assumed): as above
Protocol: as §5

Compound: CN1CCCC1CCNC(=O)c1cn2c3c(c(N4CCC(c5ccccn5)C4)c(F)cc3c1=O)Oc1cc3ccccc3cc1-2 (stereo not shown) [Compound C-5]
binding to 28S versus 18S rRNA [1]: specific binding to 28S over 18S

IC50 (rRNA synthesis, HCT-116): 50 nM
IC50 [2]: 300 nM
Compound: CC(=O)N1CCN(c2c(F)cc3c(=O)c(C(=O)NCCN4CCCC4)cn4c3c2Oc2cc(Cl)ccc2-4)CC1 [Compound 4]

Compound: GGGAGGGGCACGGGCCGGGGGCGGGACGGG (listed as DNA, chemistry not given here; listed as Homo sapiens) [Compound 7733T]
Bmax, percent of active nucleic acid ligand (nucleolin [3]): 53%
Kd (nucleolin [3]): 0.8 nM
Affinity for Nucleolin (relative) (nucleolin [4]): +

Compound: CN1CCCC1CCNC(=O)c1cn2c3c(c(N4CCC(c5ccccn5)C4)c(F)cc3c1=O)Oc1cc3ccccc3cc1-2 (stereo not shown) [Compound C-2]
binding to 28S versus 18S rRNA [1]: selective binding to 28S over 18S

IC50 (rRNA synthesis, HCT-116): 50 nM
QPCRMYC IC50_HCT-116 [2]: INACTIVE
Compound: CC(C)N1CCN(c2nc3c(cc2F)c(=O)c(C(=O)NCCC2CCCN2C)c2n(C)c4ccc(C#N)cc4n32)CC1 (stereo not shown) [Compound 3]

Compound: GGGGCGCGGCGGGGGGAGAAGGGTCGGGGCGGCAGGGG (listed as DNA, chemistry not given here; listed as Homo sapiens) [Compound 11028NT]
Bmax, percent of active nucleic acid ligand (nucleolin [3]): 32%
Kd (nucleolin [3]): 2.7 nM
Affinity for Nucleolin (relative) (nucleolin [4]): +

Compound: CC[N+](C)(CC)CCC[n+]1c(-c2ccccc2)c2cc(N)ccc2c2ccc(N)cc21.[I-].[I-] [PI, propidium iodide, reference compound]
binding to 28S versus 18S rRNA [1]: did not discriminate in its binding to 18S and 28S rRNA

Compound: CN1CCCC1CCNC(=O)c1cn2c3c(c(N4CCC(c5ccccn5)C4)c(F)cc3c1=O)Oc1cc3ccccc3cc1-2 (stereo not shown) [Compound C-1]
binding to 28S versus 18S rRNA [1]: selective binding to 28S over 18S

IC50 (rRNA synthesis, HCT-116): 80 nM
IC50 [2]: 300 nM
Compound: CC(=O)N1CCN(c2ccc3c(=O)c(C(=O)NCCN4CCCC4)c4sc5ccccc5n4c3n2)CC1 [Compound 6]

Compound: CN1CCCC1CCNC(=O)c1cn2c3c(c(N4CCC(c5ccccn5)C4)c(F)cc3c1=O)Oc1cc3ccccc3cc1-2 (stereo not shown) [Compound C-3]
binding to 28S versus 18S rRNA [1]: less selectivity for 28S over 18S

Compound: GGGGGCGGGCTCCGGCGGGTGCGGGGGTGGGCGGGCGGGGCCGGGGGTGGGGTCGGCGGGGG [Compound 8511NT]
Bmax, percent of active nucleic acid ligand (nucleolin [3]): 100%
Kd (nucleolin [3]): 0.6 nM
Affinity for Nucleolin (relative) (nucleolin [4]): ++++

IC50 (rRNA synthesis, HCT-116): 80 nM
IC50 [2]: 300 nM
Compound: O=C(NCCN1CCOCC1)c1c(=O)c2cnc(N3CCNCC3)nc2n2c1sc1ccccc12 [Compound 7]

IC50 (rRNA synthesis, HCT-116): 50 nM
IC50 [2]: 100 nM
Compound: CC(C)N1CCN(c2c(F)cc3c(=O)c(C(=O)NCCN4CCCC4)cn4c3c2Oc2cc(Cl)ccc2-4)CC1 [Compound 2]

IC50 (rRNA synthesis, HCT-116): 50 nM
IC50 [2]: 300 nM
Compound: CC(=O)N1CCN(c2ccc3c(=O)n(CCCN4CCCC4)c4nc5ccccc5n4c3n2)CC1 [Compound 8]

Compound: GGGTCGGGGGCGGTGGTGGGCCCGCGGGGG (listed as DNA, chemistry not given here; listed as Homo sapiens) [Compound 6183NT]
Bmax, percent of active nucleic acid ligand (nucleolin [3]): 26%
Kd (nucleolin [3]): 2.2 nM
Affinity for Nucleolin (relative) (nucleolin [4]): +

IC50 (rRNA synthesis, HCT-116): 50 nM
IC50 [2]: 300 nM
Compound: O=C(NCCN1CCCC1)c1cn2c3c(c(N4CCOCC4)c(F)cc3c1=O)Oc1cc(Cl)ccc1-2 [Compound 5]

IC50 (rRNA synthesis, HCT-116): 50 nM
IC50 [2]: 10 nM
Compound: O=C(NCCN1CCCC1)c1cn2c3c(c(NCCN4CCCC4)c(F)cc3c1=O)Oc1ccccc1-2 [Compound 1]

Compound: CC(=O)N1CCN(c2c(F)cc3c(=O)c(C(=O)NCCC4CCCN4C)cn4c3c2Oc2cc3ccccc3cc2-4)CC1 (stereo not shown) [Compound C-7]
interference with the nucleolin/QP ligand interaction (nucleolin/cMyc QP DNA): interfered with the nucleolin/QP ligand interaction
interference with the nucleolin/HP ligand interaction [5]: did not significantly interfere with the nucleolin/HP ligand interaction

IC50 (rRNA synthesis, HCT-116): 50 nM
IC50 [2]: 300 nM
Compound: COc1ccc2c(=O)c(C(=O)NCCN3CCCC3)c3sc4ccccc4n3c2n1 [Compound 9]

Compound: GGGAGGGCGCGCGGGTCGGGG (listed as DNA, chemistry not given here; listed as Homo sapiens) [Compound 8749NT]
Bmax, percent of active nucleic acid ligand (nucleolin [3]): 13%
Kd (nucleolin [3]): 1.9 nM
Affinity for Nucleolin (relative) (nucleolin [4]): +

Compound: CN1CCCC1CCNC(=O)c1cn2c3c(c(N4CCC(c5ccccn5)C4)c(F)cc3c1=O)Oc1cc3ccccc3cc1-2 (stereo not shown) [Compound C-4]
binding to 28S versus 18S rRNA [1]: less selectivity for 28S over 18S

Compound: CC(=O)N1CCN(c2c(F)cc3c(=O)c(C(=O)NCCN4CCCC4)cn4c3c2Oc2cc(Cl)ccc2-4)CC1 [Compound C-6]
interference with the nucleolin/QP ligand interaction (nucleolin/cMyc QP DNA): interfered with the nucleolin/QP ligand interaction
interference with the nucleolin/HP ligand interaction [5]: did not significantly interfere with the nucleolin/HP ligand interaction
